A short description of this data set: Dispersion behaviour on mixing with water. The following applies: mixed with water. The data set is classed as physicochemical. As to the method: The size of the emulsion particles were measured by using Malvern Zetasizer (Malvern Instruments Limited, England) after preparing the emulsion by adding 3 mL of distilled water to 2 μL of thus obtained liquid formulation. An average particle size and polydispersity were obtained by measuring values for a given formulation three times (Orr, Encyclopedia of emulsion technology, 1, 369-404, 1985). The polydispersity was obtained as the variance indicated by the logarithmic scale in the logarithmic normal distribution function. The above method in measuring the particle size and the polydispersity was used throughout the following examples.
The above composition exists as semi-solid or solid at room temperature and in a refrigerator, respectively, but as liquid at or above 40° C. Dispersion with the average particle size of 530 nm was obtained when the above composition was vortexed for 10 s in water. The absorbance at 400 nm was 2.36.
Monoolein (99.5% purity) from Nu-Chek Prep (Elysian, Minn., USA) or Myverol 18-99K (monoolein content 86.6 weight %) from Danisco A/S (Copenhagen, Denmark) were mixed with water. […] Since the cubic phase had very high viscosity and floated in water, the particle size or absorbance could not be determined.

Turning to `CCCCCCCC/C=C\CCCCCCCC(=O)OCC(O)CO` (stereo not shown) [Monoolein (99.5% purity), Monoolein], the “dispersion behaviour in water” value is on record as “Cubic phases were formed instead of dispersion”.

For the origin of these results see patent US20060134144A1, “Mucoadhesive composition and formulation for solubilization of insoluble drugs and preparation method thereof” (priority 2002, published 2006).
